Source: patent US20230159532A1, “PARATHYROID HORMONE (PTH) RECEPTOR ANTAGONISTS AND USES THEREOF” (Crinetics Pharmaceuticals, Inc., priority 2021, published 2023)

Molecular target: T1, human PTHR1 receptor (Homo sapiens, UniProt Q03431)
T1 construct: purchased Eurofins HTS030M
T1 sequence (Q03431 27-593): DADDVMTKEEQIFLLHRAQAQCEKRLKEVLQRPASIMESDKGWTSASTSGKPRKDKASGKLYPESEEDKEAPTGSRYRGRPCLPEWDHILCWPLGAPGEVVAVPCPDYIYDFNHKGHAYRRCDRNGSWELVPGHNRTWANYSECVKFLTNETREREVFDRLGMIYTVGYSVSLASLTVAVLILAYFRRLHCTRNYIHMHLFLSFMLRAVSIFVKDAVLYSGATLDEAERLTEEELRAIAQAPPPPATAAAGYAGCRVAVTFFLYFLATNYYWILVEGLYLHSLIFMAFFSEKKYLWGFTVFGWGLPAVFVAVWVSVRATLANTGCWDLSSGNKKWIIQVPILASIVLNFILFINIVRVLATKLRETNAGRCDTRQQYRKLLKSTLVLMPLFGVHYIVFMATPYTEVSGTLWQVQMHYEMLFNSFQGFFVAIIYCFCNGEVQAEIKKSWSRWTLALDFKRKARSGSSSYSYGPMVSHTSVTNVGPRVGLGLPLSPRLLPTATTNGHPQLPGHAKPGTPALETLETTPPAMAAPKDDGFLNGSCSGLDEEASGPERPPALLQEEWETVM
Experiment: Competitive antagonist binding assay for hPTH-R1 (radioactive competition binding, SPA beads)
Conditions: human PTHR1 membranes, [125I]-[Nle8,18,Tyr34]-PTH(1-34) 0.2 nM, 90 minutes at room temperature; read-out: hPTHR1 Ki
Protocol: Competitive Antagonist Binding Assay Protocol for hPTH-R1 Antagonists:
The inhibition of binding to the human PTHR1 receptor was measured in a radioactive competition binding assay using the radiolabeled [^125I]-[NLE^8,18, TYR^34]-parathyroid hormone (1-34) ligand (PerkinElmer Cat# NEX244, custom synthesis) as the probe ligand for the receptor. Briefly, membranes from cells expressing the human PTHR1 (Eurofins Cat# HTS030M) were incubated with SPA beads (PerkinElmer Cat# RPNQ0001) in binding assay buffer [50 mM HEPES (Biopioneer Cat# C0113), 5 mM MgCl2 (Sigma Cat# M8266), 10 mM CaCl2 (Fisher Scientific Cat# BP510), 0.1% BSA (Fisher Scientific Cat# BP1600), 0.01% TritonX-100 (Bio-Rad Cat#161-0407), and protease inhibitors (Pierce Cat# A32963); pH 7.4]. Membranes bound to SPA bead were treated with various dilutions of compounds (final concentrations typically 0-10,000 nM), and 0.2 nM radiolabeled ligand in 96-well isoplates (PerkinElmer Cat#6005040) for 90 minutes at room temperature. The radioactive signal was detected using a MicroBetaTriLux 1450 LSC (PerkinElmer). All data manipulations to determine the Ki values were performed using GraphPad v8 (GraphPad, San Diego Calif.).

| Structure (SMILES) | Ki [µM] |
| --- | --- |
| CCOC(=O)CCCNc1cc(F)c(N2C(=O)N(CC)c3ncc(Cl)cc3-c3ccc(Cl)cc32)c(F)c1 [1-53, ethyl 4-[(4-{4,13-dichloro-8-ethyl-9-oxo-6,8,10-triazatricyclo[9.4.0.0^2,7]pentadeca-1(11),2(7),3,5,12,14-hexaen-10-yl}-3,5-difluorophenyl)amino]butanoate] | 1 to 10 |
| CCN1C(=O)N(c2c(F)cc(NCCNC[C@@H]3CCC(=O)N3)cc2F)c2cc(C#N)ccc2-c2cc(Cl)cnc21 [1-174, 4-chloro-10-(2,6-difluoro-4-{[2-({[(2S)-5-oxopyrrolidin-2-yl]methyl}amino)ethyl]amino}phenyl)-8-ethyl-9-oxo-6,8,10-triazatricyclo[9.4.0.0^2,7]pentadeca-1(11),2(7),3,5,12,14-hexaene-13-carbonitrile] | < 0.1 |
| CCN1C(=O)N(c2c(F)cc(NCCNCCOC(N)=O)cc2F)c2cc(C#N)ccc2-c2cc(Cl)cnc21 [1-189, 2-({2-[(4-{4-chloro-13-cyano-8-ethyl-9-oxo-6,8,10-triazatricyclo[9.4.0.0^2,7]pentadeca-1(11),2(7),3,5,12,14-hexaen-10-yl}-3,5-difluorophenyl)amino]ethyl}amino)ethyl carbamate] | < 0.1 |
| CCN1C(=O)N(c2c(F)cc(NCCNC)cc2F)c2cc(Cl)cc(C)c2-c2cc(F)cnc21 [1-32, 13-chloro-10-(2,6-difluoro-4-{[2-(methylamino)ethyl]amino}phenyl)-8-ethyl-4-fluoro-15-methyl-6,8,10-triazatricyclo[9.4.0.0^2,7]pentadeca-1(11),2(7),3,5,12,14-hexaen-9-one] | < 0.1 |
| CCN1C(=O)N(c2c(F)cc(NCCNC)cc2F)c2cc(C#N)ccc2-c2cc(Cl)cnc21 [1-54, 4-chloro-10-(2,6-difluoro-4-{[2-(methylamino)ethyl]amino}phenyl)-8-ethyl-9-oxo-6,8,10-triazatricyclo[9.4.0.0^2,7]pentadeca-1(11),2(7),3,5,12,14-hexaene-13-carbonitrile] | < 0.1 |
| CCN1C(=O)N(c2c(F)cc(NCCNC3CCOC3)cc2F)c2cc(Cl)ccc2-c2cc(Cl)cnc21 (stereo not drawn) [1-13, 4,13-dichloro-10-[2,6-difluoro-4-({2-[(oxolan-3-yl)amino]ethyl}amino)phenyl]-8-ethyl-6,8,10-triazatricyclo[9.4.0.0^2,7]pentadeca-1(11),2(7),3,5,12,14-hexaen-9-one] | < 0.1 |
| CCN1C(=O)N(c2c(F)cc(NCCN[C@H]3C[C@H](O)C3)cc2F)c2cc(C#N)ccc2-c2cc(C(F)(F)F)cnc21 [1-224, 10-{2,6-difluoro-4-[(2-{[(1r,3r)-3-hydroxycyclobutyl]amino}ethyl)amino]phenyl}-8-ethyl-9-oxo-4-(trifluoromethyl)-6,8,10-triazatricyclo[9.4.0.0^2,7]pentadeca-1(11),2(7),3,5,12,14-hexaene-13-carbonitrile] | < 0.1 |
| CCN1C(=O)N(c2c(F)cc(NCCN3CCNC(=O)C3)cc2F)c2cc(C#N)ccc2-c2cc(Cl)cnc21 [1-128, 4-chloro-10-(2,6-difluoro-4-{[2-(3-oxopiperazin-1-yl)ethyl]amino}phenyl)-8-ethyl-9-oxo-6,8,10-triazatricyclo[9.4.0.0^2,7]pentadeca-1(11),2(7),3,5,12,14-hexaene-13-carbonitrile] | 0.1 to 1 |
| CCN1C(=O)N(c2c(F)cc(NCCNC)cc2F)c2cc(Cl)ccc2-c2cc(C(F)(F)F)cnc21 [1-57, 13-chloro-10-(2,6-difluoro-4-{[2-(methylamino)ethyl]amino}phenyl)-8-ethyl-4-(trifluoromethyl)-6,8,10-triazatricyclo[9.4.0.0^2,7]pentadeca-1(11),2(7),3,5,12,14-hexaen-9-one] | < 0.1 |
| CCN1C(=O)N(c2c(F)cc(NCCNCC3CCCN3)cc2F)c2cc(C#N)ccc2-c2cc(Cl)cnc21 (stereo not drawn) [1-238, 4-chloro-10-{2,6-difluoro-4-[(2-{[(pyrrolidin-2-yl)methyl]amino}ethyl)amino]phenyl}-8-ethyl-9-oxo-6,8,10-triazatricyclo[9.4.0.0^2,7]pentadeca-1(15),2(7),3,5,11,13-hexaene-13-carbonitrile] | < 0.1 |
| CCN1C(=O)N(c2c(F)cc(N(C)CCNC)cc2F)c2cc(C#N)ccc2-c2cc(Cl)cnc21 [1-146, 4-chloro-10-(2,6-difluoro-4-{methyl[2-(methylamino)ethyl]amino}phenyl)-8-ethyl-9-oxo-6,8,10-triazatricyclo[9.4.0.0^2,7]pentadeca-1(11),2(7),3,5,12,14-hexaene-13-carbonitrile] | < 0.1 |
| CCN1C(=O)N(c2c(F)cc(N[C@H](C)CNC)cc2F)c2cc(C#N)ccc2-c2cc(Cl)cnc21 [1-159, 4-chloro-10-(2,6-difluoro-4-{[(2R)-1-(methylamino)propan-2-yl]amino}phenyl)-8-ethyl-9-oxo-6,8,10-triazatricyclo[9.4.0.0^2,7]pentadeca-1(11),2(7),3,5,12,14-hexaene-13-carbonitrile] | < 0.1 |
| CCN1C(=O)N(c2c(F)cc(NCCNC[C@H](O)CO)cc2F)c2cc(C#N)ccc2-c2cc(Cl)cnc21 [1-171, 4-chloro-10-{4-[(2-{[(2S)-2,3-dihydroxypropyl]amino}ethyl)amino]-2,6-difluorophenyl}-8-ethyl-9-oxo-6,8,10-triazatricyclo[9.4.0.0^2,7]pentadeca-1(11),2(7),3,5,12,14-hexaene-13-carbonitrile] | < 0.1 |
| CCN1C(=O)N(c2ncc(NCCNC3CCOCC3)cc2F)c2cc(Cl)ccc2-c2cc(Cl)cnc21 [2-14, 4,13-dichloro-8-ethyl-10-[3-fluoro-5-({2-[(oxan-4-yl)amino]ethyl}amino)pyridin-2-yl]-6,8,10-triazatricyclo[9.4.0.0^2,7]pentadeca-1(11),2(7),3,5,12,14-hexaen-9-one] | < 0.1 |
| CCN1C(=O)N(c2c(F)cc(N3CCN[C@H](CO)C3)cc2F)c2cc(C#N)ccc2-c2cc(Cl)cnc21 [1-152, 4-chloro-10-{2,6-difluoro-4-[(3S)-3-(hydroxymethyl)piperazin-1-yl]phenyl}-8-ethyl-9-oxo-6,8,10-triazatricyclo[9.4.0.0^2,7]pentadeca-1(11),2(7),3,5,12,14-hexaene-13-carbonitrile] | 0.1 to 1 |
| CCN1C(=O)N(c2c(F)cc(N3CCCNCC3)cc2F)c2cc(C#N)ccc2-c2cc(Cl)cnc21 [1-143, 4-chloro-10-[4-(1,4-diazepan-1-yl)-2,6-difluorophenyl]-8-ethyl-9-oxo-6,8,10-triazatricyclo[9.4.0.0^2,7]pentadeca-1(11),2(7),3,5,12,14-hexaene-13-carbonitrile] | < 0.1 |
| CCN1C(=O)N(c2c(F)cc(NCCNCCO)cc2F)c2cc(Cl)ccc2-c2cc(C#N)cnc21 [1-90, 13-chloro-10-[2,6-difluoro-4-({2-[(2-hydroxyethyl)amino]ethyl}amino)phenyl]-8-ethyl-9-oxo-6,8,10-triazatricyclo[9.4.0.0^2,7]pentadeca-1(11),2(7),3,5,12,14-hexaene-4-carbonitrile] | < 0.1 |
| CCN1C(=O)N(c2c(F)cc(NCCNCCO)cc2F)c2cc(C#N)ccc2-c2cc(Cl)cnc21 [1-55, 4-chloro-10-[2,6-difluoro-4-({2-[(2-hydroxyethyl)amino]ethyl}amino)phenyl]-8-ethyl-9-oxo-6,8,10-triazatricyclo[9.4.0.0^2,7]pentadeca-1(11),2(7),3,5,12,14-hexaene-13-carbonitrile] | < 0.1 |
| CCN1C(=O)N(c2c(F)cc(NCCNCCN3CCOC3=O)cc2F)c2cc(C#N)ccc2-c2cc(Cl)cnc21 [1-191, 4-chloro-10-{2,6-difluoro-4-[(2-{[2-(2-oxo-1,3-oxazolidin-3-yl)ethyl]amino}ethyl)amino]phenyl}-8-ethyl-9-oxo-6,8,10-triazatricyclo[9.4.0.0^2,7]pentadeca-1(11),2(7),3,5,12,14-hexaene-13-carbonitrile] | < 0.1 |
| CCN1C(=O)N(c2c(F)cc(NCCNC)cc2F)c2cc(Cl)ccc2-c2cc(F)cnc21 [1-14, 13-chloro-10-(2,6-difluoro-4-{[2-(methylamino)ethyl]amino}phenyl)-8-ethyl-4-fluoro-6,8,10-triazatricyclo[9.4.0.0^2,7]pentadeca-1(11),2(7),3,5,12,14-hexaen-9-one] | < 0.1 |
| CCN1C(=O)N(c2c(F)cc(NCCNCCF)cc2F)c2cc(Cl)ccc2-c2cc(Cl)cnc21 [1-59, 4,13-dichloro-10-[2,6-difluoro-4-({2-[(2-fluoroethyl)amino]ethyl}amino)phenyl]-8-ethyl-6,8,10-triazatricyclo[9.4.0.0^2,7]pentadeca-1(11),2(7),3,5,12,14-hexaen-9-one] | < 0.1 |
